What all share (type): cell-based
The test system of assay [1] is Candida Albicans (ATCC 90028). Description: Broth micro-dilution antifungal susceptibility test (MIC). The settings on record: 35° C. The procedure:
(§1) Trichophyton Rubrum (ATCC 28188, PBI International); Trichophyton Mentagrophytes (ATCC 9533, PBI International); Aspergillus Niger (ATCC 16404, PBI International); Scopulariopsis Brevicaulis (ATCC 36840, DSMZ); Candida Albicans (ATCC 90028, PBI International); Candida Glabrata (ATCC 90030, DSMZ).
(§2) Compounds' minimal inhibition concentration (MIC) was determined through broth micro-dilution susceptibility test using a method developed in agreement with the National Committee for Clinical Laboratory Standards (NCCLS) (National Committee for Clinical Laboratory Standards. Reference Method for Broth Dilution Antifungal Susceptibility Testing of Yeasts; Approved standard-Second Edition M27-A2. 2002; Vol. 22, No. 15) (National Committee for Clinical Laboratory Standards. Reference Method for Broth Dilution Antifungal Susceptibility Testing of Filamentous Fungi; Approved standard M38-A. 2002; Vol. 22, No. 16).
(§3) Assays were carried out in RPMI 1640 with L-glutamine medium buffered to pH 7 with 0.165M 3-(N-morpholino)propanesulfonic acid (MOPS) and 10M NaOH and supplemented with 18 g glucose/liter. The tests were performed using 96 well sterile plates (inoculum size of 1×10^5 CFU/mL). Compounds stock solutions were prepared at 12.8 mg/mL in 100% DMSO. A series of twofold dilutions were prepared in plate using RPMI 1640. Final concentrations ranged from 0.125 to 128 μg/mL at 1% DMSO.

For assay [2], the system named is Trichophyton Rubrum (ATCC 28188). The description is as above. The settings on record: ATCC28188, 120 h, 35° C. Here is the method: as §1, §2, §3
Assay [3] relates to Candida Glabrata (ATCC 90030). The description is as above. As to conditions: Nakaseomyces glabratus, ATCC90030, 48 h, 35° C. Here is the method:
as §1, §2, §3

The subject of assay [4] is Trichophyton Mentagrophytes (ATCC 9533). The description is as above. The settings on record: ATCC9533, 120 h, 35° C. The procedure: as §1, §2, §3
For assay [5], the system named is Aspergillus Niger (ATCC 16404). The assay is described as above. The settings on record: ATCC16404, 120 h, 35° C. Here is the method: as §1, §2, §3
The subject of assay [6] is Scopulariopsis Brevicaulis (ATCC 36840). The description is as above. As to conditions: ATCC36840, 120 h, 35° C. Here is the method:
as §1, §2, §3

Assay [7] relates to Candida Glabrata (ATCC 90030). The assay can be described thus: Assessment of the mechanism of action: antifungal activity with or without 100 μM Fe3+. The settings on record: 100 μM FeCl3 in the test medium; OD at 540 nm. Here is the method: To verify if the compounds mechanism of action is the chelation of iron ions, the MIC determination with Candida glabrata (ATCC 90030) strain was performed by the addition of excessive iron ions (100 μM FeCl3) in the test medium. The viability of cells exposed to drugs, with or without the metal ion Fe^3+, was evaluated by the OD measure at 540 nm.
Compounds described in Example 2, E8 and NiK-29298 were evaluated in presence and in absence of 100 μM (100 micromoles) Fe^3+.
In all figures, the lines and dots represent the percent inhibition of the fungal growth (in ordinate) by adding different concentrations of antifungal agents (in abscissa). Blue lines and dots are the experiments performed without iron supplementation, while red lines and dots represent the results of the experiments performed in presence of 100 μM Fe^3+. […] Conversely, Fe^3+ has no effect on amphotericin, an antifungal agent known in the art to have a mechanism of action different from that of ciclopirox.

Assay [8] concerns 6 strains tested, including yeasts, dermatophytes and molds. Description: Antifungal spectrum over the 6 strains tested (MIC test). As to conditions: 6 strains: yeasts. Here is the method:
as §1, §2, §3

The mark [9] stands for this setting: ATCC90028, geometric means of two single experiments, 48 h, Table 3.
The mark [10] stands for this setting: geometric means of two single experiments, five days, Table 3, read-out: MIC Trycophyton Rubrum ATCC 28188.
[11] abbreviates: geometric means of two single experiments, Table 3.
Setting [12] is: geometric means of two single experiments, five days, Table 3, read-out: MIC Tricophyton Mentagrophytes ATCC 9533.
[13] abbreviates: geometric means of two single experiments, five days, Table 3.
[14] abbreviates: ATCC90028, comparison compounds, Table 5, 48 h.
The mark [15] stands for this setting: comparison compounds, Table 5, five days, read-out: MIC Trycophyton Rubrum ATCC 28188.
The mark [16] stands for this setting: comparison compounds, Table 5, five days, read-out: MIC Tricophyton Mentagrophytes ATCC 9533.
Where [17] appears, read: comparison compounds, Table 5, five days.

In brackets after ≈: the same amount, converted by molar mass. Like-named read-outs stand apart in the source and are kept apart here.

In the case of `O=C(Nc1ccc2c(c1)OCCO2)c1ccc2cccnc2c1O` [Example 9, 8-Hydroxy-N-(2,3-dihydrobenzo[b][1,4]dioxin-6-yl)quinoline-7-carboxamide], the MIC in assay [1] (setting [9]) worked out at 2 µg/mL (≈ 6.21 µM); in assay [2] (setting [10]), 0.25 µg/mL (≈ 0.776 µM); in assay [3] (setting [11]) it was 2 µg/mL (≈ 6.21 µM); in assay [4] (setting [12]), 0.5 µg/mL (≈ 1.55 µM); in assay [5] (setting [13]), 1 µg/mL (≈ 3.1 µM); in assay [6] (setting [13]) it was 1 µg/mL (≈ 3.1 µM).
Take `O=C(NCc1ccc(N2CCOCC2)cc1)c1ccc2cccnc2c1O` [Example 10, 8-Hydroxy-N-(4-morpholinobenzyl)quinoline-7-carboxamide]: the MIC in assay [1] (setting [9]) came out at 4 µg/mL (≈ 11 µM); in assay [2] (setting [10]), 1 µg/mL (≈ 2.75 µM); in assay [3] (setting [11]), 2 µg/mL (≈ 5.5 µM); in assay [4] (setting [12]), 0.5 µg/mL (≈ 1.38 µM); in assay [5] (setting [13]), 0.5 µg/mL (≈ 1.38 µM); in assay [6] (setting [13]), 4 µg/mL (≈ 11 µM).
For `O=C(NCc1nc2ccccc2s1)c1ccc2cccnc2c1O` [Example 14, 8-Hydroxy-N-(benzo[d]thiazol-2-ylmethyl)quinoline-7-carboxamide], the MIC in assay [1] (setting [9]) worked out at 2 µg/mL (≈ 5.96 µM); in assay [2] (setting [10]), 2 µg/mL (≈ 5.96 µM); in assay [3] (setting [11]), 2.83 µg/mL (≈ 8.44 µM); in assay [4] (setting [12]) it was 1 µg/mL (≈ 2.98 µM); in assay [5] (setting [13]), 0.5 µg/mL (≈ 1.49 µM); in assay [6] (setting [13]), 1 µg/mL (≈ 2.98 µM).
With `Cc1csc(CNC(=O)c2ccc3cccnc3c2O)n1` [Example 12, 8-Hydroxy-N-((4-methylthiazol-2-yl)methyl)quinoline-7-carboxamide], the MIC in assay [1] (setting [9]) came to 2 µg/mL (≈ 6.68 µM); in assay [2] (setting [10]) it was 1.41 µg/mL (≈ 4.71 µM); in assay [3] (setting [11]), 2 µg/mL (≈ 6.68 µM); in assay [4] (setting [12]), 2.83 µg/mL (≈ 9.45 µM); in assay [5] (setting [13]) it was 1 µg/mL (≈ 3.34 µM); in assay [6] (setting [13]) it was 1 µg/mL (≈ 3.34 µM).
Turning to `Cc1cc(C2CCCCC2)n(O)c(=O)c1` [ciclopirox], in assay [7], the “Effect of Fe3+ on antifungal activity” value was “completely inhibited”.
Turning to `CN(C)c1ccc(CNC(=O)c2ccc3cccnc3c2O)cc1` [Example 4, 8-Hydroxy-N-(4-(dimethylamino)benzyl)quinoline-7-carboxamide], the MIC in assay [1] (setting [9]) amounted to 2.83 µg/mL (≈ 8.81 µM); in assay [2] (setting [10]) it was 1 µg/mL (≈ 3.11 µM); in assay [3] (setting [11]), 1.41 µg/mL (≈ 4.39 µM); in assay [4] (setting [12]) it was 0.71 µg/mL (≈ 2.21 µM); in assay [5] (setting [13]), 0.5 µg/mL (≈ 1.56 µM); in assay [6] (setting [13]), 1 µg/mL (≈ 3.11 µM).
Take `O=C(NCc1ccc(Br)cc1)c1ccc2cccnc2c1O` [Example 2, 8-Hydroxy-N-(4-bromobenzyl)quinoline-7-carboxamide]: the MIC in assay [1] (setting [9]) came to 1.41 µg/mL (≈ 3.95 µM); in assay [2] (setting [10]) it was 1.41 µg/mL (≈ 3.95 µM); in assay [3] (setting [11]), 1.41 µg/mL (≈ 3.95 µM); in assay [4] (setting [12]) it was 1 µg/mL (≈ 2.8 µM); in assay [5] (setting [13]), 0.71 µg/mL (≈ 1.99 µM); in assay [6] (setting [13]), 1.41 µg/mL (≈ 3.95 µM).
Consider `Cc1cc(CNC(=O)c2ccc3cccnc3c2O)no1` [Example 11, 8-Hydroxy-N-((5-methylisoxazol-3-yl)methyl)quinoline-7-carboxamide], for which the MIC in assay [1] (setting [9]) was 2 µg/mL (≈ 7.06 µM); in assay [2] (setting [10]), 1 µg/mL (≈ 3.53 µM); in assay [3] (setting [11]), 2 µg/mL (≈ 7.06 µM); in assay [4] (setting [12]) it was 4 µg/mL (≈ 14.1 µM); in assay [5] (setting [13]), 1 µg/mL (≈ 3.53 µM); in assay [6] (setting [13]), 2.83 µg/mL (≈ 9.99 µM).
For the compound `C[C@@H]1[C@H](O)[C@@H](C)/C=C/C=C/C=C/C=C/C=C/C=C/C=C/[C@H](O[C@@H]2O[C@H](C)[C@@H](O)[C@H](N)[C@@H]2O)C[C@@H]2O[C@](O)(C[C@@H](O)C[C@@H](O)[C@H](O)CC[C@@H](O)C[C@@H](O)CC(=O)O[C@H]1C)C[C@H](O)[C@H]2C(=O)O` [amphotericin], in assay [7], the “Effect of Fe3+ on antifungal activity” value was “no effect”.
Consider `O=C(NCc1ccccc1)c1ccc2ncccc2c1` [NiK-29298, reference compound], for which the MIC in assay [1] (setting [14]) was 2 µg/mL (≈ 7.62 µM); in assay [2] (setting [15]), above 128 µg/mL; in assay [3] (comparison compounds, Table 5) it was 5.65 µg/mL (≈ 21.5 µM); in assay [4] (setting [16]), 128 µg/mL (≈ 488 µM); in assay [5] (setting [17]) it was 64 to 128 µg/mL (≈ 244 to 488 µM); in assay [6] (setting [17]), above 128 µg/mL. Moreover, in assay [8], the “Spectrum of antifungal activity on the strains tested” value was “active only on yeasts”. For the same compound, the “Effect of Fe3+ on antifungal activity” value in assay [7] is listed as “not inhibited”.
`O=C(NCc1ccc(OCc2ccccc2)cc1)c1ccc2ncccc2c1` [Example E8, reference compound]: the MIC in assay [1] (setting [14]) was 1.41 µg/mL (≈ 3.83 µM); in assay [2] (setting [15]) it was above 128 µg/mL; in assay [3] (comparison compounds, Table 5), 1 µg/mL (≈ 2.71 µM); in assay [4] (setting [16]), 75 µg/mL (≈ 204 µM); in assay [5] (setting [17]) it was 2 to 128 µg/mL (≈ 5.43 to 347 µM); in assay [6] (setting [17]), above 128 µg/mL. For the same compound, the “Spectrum of antifungal activity on the strains tested” value in assay [8] is recorded as “active only on yeasts”. For the same compound, the “Effect of Fe3+ on antifungal activity” value in assay [7] was “not inhibited”.
For the compound `O=C(Nc1ccc(-n2cncn2)cc1)c1ccc2cccnc2c1O` [Example 7, 8-Hydroxy-N-(4-(1H-1,2,4-triazol-1-yl)phenyl)quinoline-7-carboxamide], the MIC in assay [1] (setting [9]) was 2 µg/mL (≈ 6.04 µM); in assay [2] (setting [10]), 2.52 µg/mL (≈ 7.61 µM); in assay [3] (setting [11]) it was 2.83 µg/mL (≈ 8.54 µM); in assay [4] (setting [12]), 2 µg/mL (≈ 6.04 µM); in assay [5] (setting [13]), 1 µg/mL (≈ 3.02 µM); in assay [6] (setting [13]) it was 1.26 µg/mL (≈ 3.8 µM).
On to `O=C(NCc1ccccn1)c1ccc2cccnc2c1O` [Example 1, 8-Hydroxy-N-(pyridin-2-ylmethyl)quinoline-7-carboxamide], for which the minimum inhibitory concentration (MIC) in assay [1] (setting [9]) turned out to be 4 µg/mL (≈ 14.3 µM); in assay [2] (setting [10]) it was 2 µg/mL (≈ 7.16 µM); in assay [3] (setting [11]), 4 µg/mL (≈ 14.3 µM); in assay [4] (setting [12]), 2 µg/mL (≈ 7.16 µM); in assay [5] (setting [13]), 0.5 µg/mL (≈ 1.79 µM); in assay [6] (setting [13]), 1 µg/mL (≈ 3.58 µM).

As a reminder, the MIC is the lowest concentration that inhibits growth of the organism.

Values taken from patent US8729076B2, “Secondary 8-hydroxyquinoline-7-carboxamide derivatives” (Polichem SA, priority 2009, dated 2014).
